According to patent US11963985B2, “Coral composite extract, composition including the same and method of producing the same” (National Sun Yat-Sen University, priority 2018, dated 2024):

Assay: partition coefficient (log P) of EXC-B
Format: physicochemical
Method: Next, as STEP 103 depicts, the crude extraction step is performed on the coral staring material to obtain a crude extract, in which a first solvent is applied. In one embodiment, there is no limitation of the kind of the first solvent. However, the one having a polarity index P′ value closer to a polarity index P′ value of the coral composite extract is the better. For example, a partition coefficient (log P) of EXC-B is about 0.9 and an octanol-water partition coefficient (Clog P) of EXC-B is about 3.5568. Therefore, the polarity index P′ value of the first solvent can be 0.1 to 6.0, but 1.0 to 5.4 is better.

excavatolide B [EXC-B]
partition coefficient (log P): about 0.9
